Test [1] has as its target Serine/threonine-protein kinase Chk2 (Homo sapiens) (UniProt O96017). The test is described as follows: Selectivity interaction (Ambit KINOMEscan and KiNATiv profiling in Jurkat cells) EUB0000090b CHEK2. The following applies: at 1 µM. It counts as cell-based.
Test [2] concerns the target Casein kinase I isoform gamma-2 (Homo sapiens) (UniProt P78368). Description: Selectivity interaction (Ambit KINOMEscan and KiNATiv profiling in Jurkat cells) EUB0000090b CSNK1G2. The test is classed as cell-based. The following applies: at 1 µM.
For test [3], the target named is Ribosomal protein S6 kinase alpha-1 (Homo sapiens, UniProt Q15418). Description: Selectivity interaction (SelectScreen profiling (Invitrogen)) EUB0000607a RPS6KA1. As to conditions: at 2 µM.
Test [4] has as its target Receptor-interacting serine/threonine-protein kinase 2 (Homo sapiens, UniProt O43353). Description: Selectivity interaction (KinomeScan (DiscoverX)) EUB0000607a RIPK2. As to conditions: at 10 µM.
The target of test [5] is NT-3 growth factor receptor (Homo sapiens, UniProt Q16288). The following applies: at 10 µM.
Sequence of NT-3 growth factor receptor (Q16288 32-839 limits assumed): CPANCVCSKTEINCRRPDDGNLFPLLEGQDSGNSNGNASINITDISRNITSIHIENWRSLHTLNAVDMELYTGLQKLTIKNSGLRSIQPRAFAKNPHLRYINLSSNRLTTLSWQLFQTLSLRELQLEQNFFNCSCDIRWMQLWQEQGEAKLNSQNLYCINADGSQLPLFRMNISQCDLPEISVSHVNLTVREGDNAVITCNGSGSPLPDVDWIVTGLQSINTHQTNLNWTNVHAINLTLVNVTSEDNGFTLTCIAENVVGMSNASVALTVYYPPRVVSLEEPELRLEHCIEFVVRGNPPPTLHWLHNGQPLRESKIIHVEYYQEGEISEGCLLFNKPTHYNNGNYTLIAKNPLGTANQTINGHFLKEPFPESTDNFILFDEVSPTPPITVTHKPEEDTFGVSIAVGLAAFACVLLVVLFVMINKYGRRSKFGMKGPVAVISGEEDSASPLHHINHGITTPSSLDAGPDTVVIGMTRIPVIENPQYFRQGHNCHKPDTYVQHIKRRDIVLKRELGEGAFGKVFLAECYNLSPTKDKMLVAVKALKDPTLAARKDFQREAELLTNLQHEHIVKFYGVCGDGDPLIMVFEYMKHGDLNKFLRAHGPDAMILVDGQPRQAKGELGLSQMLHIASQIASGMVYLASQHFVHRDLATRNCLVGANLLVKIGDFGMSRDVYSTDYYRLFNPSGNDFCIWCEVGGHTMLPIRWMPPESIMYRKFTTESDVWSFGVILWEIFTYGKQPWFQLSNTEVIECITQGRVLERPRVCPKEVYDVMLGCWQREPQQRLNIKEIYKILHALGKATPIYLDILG
Test [6] concerns the target Mitogen-activated protein kinase kinase kinase 1 (Homo sapiens, UniProt Q13233). As to conditions: at 10 µM.
Test [7] deals with Cyclin-dependent kinase 18 (Homo sapiens) (UniProt Q07002). The test is described as follows: Selectivity interaction (KinomeScan (DiscoverX)) EUB0000666a CDK18. The following applies: at 10 µM.
Test [8] concerns the target Ephrin type-A receptor 2 (Homo sapiens) (UniProt P29317). Description: Selectivity interaction (KinomeScan (DiscoverX)) EUB0000229b EPHA2. The following applies: at 10 µM.
Test [9] concerns the target T1, Inhibitor of nuclear factor kappa-B kinase subunit alpha (Homo sapiens) (UniProt O15111).
T1 sequence (whole entry): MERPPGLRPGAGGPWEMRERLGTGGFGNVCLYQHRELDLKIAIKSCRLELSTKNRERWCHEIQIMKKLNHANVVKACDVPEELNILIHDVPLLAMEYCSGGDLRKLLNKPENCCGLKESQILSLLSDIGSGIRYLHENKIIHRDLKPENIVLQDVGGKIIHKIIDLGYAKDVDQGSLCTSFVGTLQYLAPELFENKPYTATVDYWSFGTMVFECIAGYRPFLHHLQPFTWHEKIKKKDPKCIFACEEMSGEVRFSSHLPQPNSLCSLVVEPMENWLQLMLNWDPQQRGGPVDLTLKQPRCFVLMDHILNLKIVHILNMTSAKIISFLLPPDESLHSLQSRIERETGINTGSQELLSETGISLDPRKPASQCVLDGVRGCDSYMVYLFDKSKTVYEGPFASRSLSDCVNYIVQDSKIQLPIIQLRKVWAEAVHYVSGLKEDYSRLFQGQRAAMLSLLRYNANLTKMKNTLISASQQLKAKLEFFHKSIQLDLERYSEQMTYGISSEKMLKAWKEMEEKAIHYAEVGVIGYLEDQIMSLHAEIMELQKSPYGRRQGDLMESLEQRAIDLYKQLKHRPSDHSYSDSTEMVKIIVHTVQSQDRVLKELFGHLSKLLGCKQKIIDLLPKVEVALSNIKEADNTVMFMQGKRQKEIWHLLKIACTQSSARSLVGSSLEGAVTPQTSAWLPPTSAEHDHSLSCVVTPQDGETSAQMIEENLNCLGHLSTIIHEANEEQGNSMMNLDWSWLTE
The test is described as follows: Selectivity interaction (KinomeScan (DiscoverX)) EUB0000655a CHUK. The following applies: at 10 µM.

The target of test [10] is Casein kinase I isoform gamma-3 (Homo sapiens) (UniProt Q9Y6M4). The test is described as follows: Selectivity interaction (Kinase panel (Invitrogen)) EUB0000639a CSNK1G3. The following applies: at 200 nM.
For test [11], the target named is Tyrosine-protein kinase CSK (Homo sapiens) (UniProt P41240). Description: Selectivity interaction (Kinase screening (Nanosyn)) EUB0000604a CSK.
Sequence of Tyrosine-protein kinase CSK (Homo sapiens) (P41240 2-450 limits assumed): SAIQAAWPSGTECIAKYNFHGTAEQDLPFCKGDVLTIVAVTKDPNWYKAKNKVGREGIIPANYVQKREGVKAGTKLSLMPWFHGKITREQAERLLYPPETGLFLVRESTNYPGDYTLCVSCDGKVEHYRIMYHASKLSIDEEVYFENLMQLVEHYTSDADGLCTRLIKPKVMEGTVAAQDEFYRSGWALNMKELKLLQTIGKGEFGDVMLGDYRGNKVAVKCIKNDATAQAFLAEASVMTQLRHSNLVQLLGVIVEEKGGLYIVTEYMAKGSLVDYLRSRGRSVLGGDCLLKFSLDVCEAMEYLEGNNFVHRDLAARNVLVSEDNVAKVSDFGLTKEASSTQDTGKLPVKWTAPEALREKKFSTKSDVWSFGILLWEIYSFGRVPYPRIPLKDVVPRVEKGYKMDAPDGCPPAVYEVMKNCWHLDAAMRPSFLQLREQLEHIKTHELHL
Test [12] has as its target Serine/threonine-protein kinase Nek6 (Homo sapiens) (UniProt Q9HC98). The test is described as follows: Selectivity interaction (KinomeScan (DiscoverX)) EUB0001049a NEK6. The following applies: at 1 µM.
Test [13] has as its target Serine/threonine-protein kinase SIK2 (Homo sapiens) (UniProt Q9H0K1). Description: Selectivity interaction (ProQinase) EUB0000171b SIK2.
For test [14], the target named is Serine/threonine-protein kinase 38-like (Homo sapiens) (UniProt Q9Y2H1). Description: Selectivity interaction (KinomeScan (DiscoverX)) EUB0000092b STK38L. As to conditions: at 10 µM.
The target of test [15] is Ribosomal protein S6 kinase alpha-5 (Homo sapiens) (UniProt O75582). Description: Selectivity interaction (KinomeScan (DiscoverX)) EUB0000092b RPS6KA5. The following applies: at 10 µM.
Sequence of Ribosomal protein S6 kinase alpha-5 (Homo sapiens) (O75582 whole entry, looked up): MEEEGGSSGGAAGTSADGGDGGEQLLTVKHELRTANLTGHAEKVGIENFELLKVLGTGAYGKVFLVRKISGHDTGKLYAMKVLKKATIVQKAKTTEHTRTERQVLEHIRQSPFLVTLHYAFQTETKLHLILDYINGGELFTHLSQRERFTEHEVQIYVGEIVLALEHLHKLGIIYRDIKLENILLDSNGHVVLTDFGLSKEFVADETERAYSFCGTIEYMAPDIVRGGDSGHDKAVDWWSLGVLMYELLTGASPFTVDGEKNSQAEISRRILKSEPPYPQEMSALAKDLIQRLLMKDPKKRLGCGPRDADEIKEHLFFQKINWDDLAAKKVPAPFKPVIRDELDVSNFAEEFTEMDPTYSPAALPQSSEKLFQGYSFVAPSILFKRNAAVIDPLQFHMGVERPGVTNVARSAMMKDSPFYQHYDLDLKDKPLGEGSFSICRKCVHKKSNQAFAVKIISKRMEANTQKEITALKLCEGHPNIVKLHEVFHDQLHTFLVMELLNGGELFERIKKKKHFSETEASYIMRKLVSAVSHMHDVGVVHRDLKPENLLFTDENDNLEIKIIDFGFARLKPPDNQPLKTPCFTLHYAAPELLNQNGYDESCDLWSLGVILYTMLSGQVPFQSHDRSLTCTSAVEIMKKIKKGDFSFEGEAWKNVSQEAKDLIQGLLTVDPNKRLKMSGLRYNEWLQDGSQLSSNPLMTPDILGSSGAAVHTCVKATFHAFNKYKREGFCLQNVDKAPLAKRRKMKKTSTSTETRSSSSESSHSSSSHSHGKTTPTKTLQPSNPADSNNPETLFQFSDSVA
For test [16], the target named is T2, Serine/threonine-protein kinase MAK (Homo sapiens) (UniProt P20794).
T2 sequence (whole entry): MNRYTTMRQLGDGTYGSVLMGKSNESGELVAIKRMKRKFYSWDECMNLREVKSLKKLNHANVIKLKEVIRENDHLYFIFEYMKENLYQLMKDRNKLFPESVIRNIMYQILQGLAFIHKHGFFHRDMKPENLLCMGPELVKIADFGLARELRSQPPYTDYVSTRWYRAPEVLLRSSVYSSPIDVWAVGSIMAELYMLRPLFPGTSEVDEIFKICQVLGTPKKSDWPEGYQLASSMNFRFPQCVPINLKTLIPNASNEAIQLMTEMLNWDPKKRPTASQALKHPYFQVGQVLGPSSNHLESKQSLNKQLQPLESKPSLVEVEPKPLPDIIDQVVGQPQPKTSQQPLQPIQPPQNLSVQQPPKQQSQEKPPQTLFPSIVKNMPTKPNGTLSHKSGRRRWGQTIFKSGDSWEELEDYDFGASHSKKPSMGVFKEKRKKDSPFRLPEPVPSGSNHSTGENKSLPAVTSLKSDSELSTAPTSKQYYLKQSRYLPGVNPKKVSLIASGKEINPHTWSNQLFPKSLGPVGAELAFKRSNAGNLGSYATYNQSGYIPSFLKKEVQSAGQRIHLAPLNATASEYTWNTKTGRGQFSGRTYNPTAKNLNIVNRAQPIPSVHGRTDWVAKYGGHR
The test is described as follows: Selectivity interaction (KinomeScan (DiscoverX)) EUB0000045b MAK.

Molecules are shown by their SMILES.

Sequence of Serine/threonine-protein kinase SIK2 (Homo sapiens) (Q9H0K1 whole entry, looked up): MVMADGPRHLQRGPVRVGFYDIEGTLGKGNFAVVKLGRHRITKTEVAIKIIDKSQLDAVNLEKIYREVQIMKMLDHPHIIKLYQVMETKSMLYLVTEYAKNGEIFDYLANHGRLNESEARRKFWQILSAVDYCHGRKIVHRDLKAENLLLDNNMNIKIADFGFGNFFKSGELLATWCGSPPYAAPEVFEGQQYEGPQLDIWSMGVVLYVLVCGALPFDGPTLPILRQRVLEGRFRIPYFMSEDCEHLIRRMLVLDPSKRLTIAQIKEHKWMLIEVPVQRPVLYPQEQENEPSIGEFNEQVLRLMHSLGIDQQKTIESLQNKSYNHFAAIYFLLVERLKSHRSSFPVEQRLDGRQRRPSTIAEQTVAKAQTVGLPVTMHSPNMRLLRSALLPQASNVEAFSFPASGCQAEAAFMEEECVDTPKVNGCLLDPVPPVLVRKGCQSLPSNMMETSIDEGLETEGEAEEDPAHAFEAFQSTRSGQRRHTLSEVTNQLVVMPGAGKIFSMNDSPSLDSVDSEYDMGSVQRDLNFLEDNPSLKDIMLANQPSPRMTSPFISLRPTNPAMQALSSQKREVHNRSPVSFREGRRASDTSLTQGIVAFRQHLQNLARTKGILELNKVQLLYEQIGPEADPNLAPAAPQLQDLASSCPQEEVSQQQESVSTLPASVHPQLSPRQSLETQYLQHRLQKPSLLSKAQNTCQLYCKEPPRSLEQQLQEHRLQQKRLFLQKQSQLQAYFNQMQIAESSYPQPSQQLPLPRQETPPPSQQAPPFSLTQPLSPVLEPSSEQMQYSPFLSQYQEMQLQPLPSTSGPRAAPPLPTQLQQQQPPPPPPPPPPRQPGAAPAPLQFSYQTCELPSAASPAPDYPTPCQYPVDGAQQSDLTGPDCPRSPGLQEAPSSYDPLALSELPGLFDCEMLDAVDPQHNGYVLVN
Sequence of Serine/threonine-protein kinase Nek6 (Homo sapiens) (Q9HC98 whole entry): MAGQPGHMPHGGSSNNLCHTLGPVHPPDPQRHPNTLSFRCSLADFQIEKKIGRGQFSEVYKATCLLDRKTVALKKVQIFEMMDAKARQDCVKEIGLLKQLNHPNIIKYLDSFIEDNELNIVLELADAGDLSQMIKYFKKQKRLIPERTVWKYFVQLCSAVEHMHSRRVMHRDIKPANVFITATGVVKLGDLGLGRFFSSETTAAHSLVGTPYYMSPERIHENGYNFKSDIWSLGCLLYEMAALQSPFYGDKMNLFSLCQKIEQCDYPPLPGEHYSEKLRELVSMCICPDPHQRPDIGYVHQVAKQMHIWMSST
Sequence of Receptor-interacting serine/threonine-protein kinase 2 (O43353 whole entry): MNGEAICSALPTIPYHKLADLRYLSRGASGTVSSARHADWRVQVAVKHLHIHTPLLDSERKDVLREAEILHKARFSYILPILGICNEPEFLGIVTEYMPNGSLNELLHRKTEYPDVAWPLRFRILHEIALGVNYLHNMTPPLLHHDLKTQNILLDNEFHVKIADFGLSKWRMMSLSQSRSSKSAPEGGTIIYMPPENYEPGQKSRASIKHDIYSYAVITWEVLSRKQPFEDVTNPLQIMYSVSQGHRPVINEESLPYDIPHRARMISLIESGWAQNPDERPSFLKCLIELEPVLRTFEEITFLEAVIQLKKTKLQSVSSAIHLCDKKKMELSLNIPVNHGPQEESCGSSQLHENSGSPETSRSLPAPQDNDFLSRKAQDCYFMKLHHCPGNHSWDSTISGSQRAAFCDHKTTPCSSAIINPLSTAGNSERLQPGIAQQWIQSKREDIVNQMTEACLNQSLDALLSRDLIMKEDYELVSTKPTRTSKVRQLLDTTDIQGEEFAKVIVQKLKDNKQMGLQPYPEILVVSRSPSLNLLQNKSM
Sequence of Ephrin type-A receptor 2 (Homo sapiens) (P29317 whole entry): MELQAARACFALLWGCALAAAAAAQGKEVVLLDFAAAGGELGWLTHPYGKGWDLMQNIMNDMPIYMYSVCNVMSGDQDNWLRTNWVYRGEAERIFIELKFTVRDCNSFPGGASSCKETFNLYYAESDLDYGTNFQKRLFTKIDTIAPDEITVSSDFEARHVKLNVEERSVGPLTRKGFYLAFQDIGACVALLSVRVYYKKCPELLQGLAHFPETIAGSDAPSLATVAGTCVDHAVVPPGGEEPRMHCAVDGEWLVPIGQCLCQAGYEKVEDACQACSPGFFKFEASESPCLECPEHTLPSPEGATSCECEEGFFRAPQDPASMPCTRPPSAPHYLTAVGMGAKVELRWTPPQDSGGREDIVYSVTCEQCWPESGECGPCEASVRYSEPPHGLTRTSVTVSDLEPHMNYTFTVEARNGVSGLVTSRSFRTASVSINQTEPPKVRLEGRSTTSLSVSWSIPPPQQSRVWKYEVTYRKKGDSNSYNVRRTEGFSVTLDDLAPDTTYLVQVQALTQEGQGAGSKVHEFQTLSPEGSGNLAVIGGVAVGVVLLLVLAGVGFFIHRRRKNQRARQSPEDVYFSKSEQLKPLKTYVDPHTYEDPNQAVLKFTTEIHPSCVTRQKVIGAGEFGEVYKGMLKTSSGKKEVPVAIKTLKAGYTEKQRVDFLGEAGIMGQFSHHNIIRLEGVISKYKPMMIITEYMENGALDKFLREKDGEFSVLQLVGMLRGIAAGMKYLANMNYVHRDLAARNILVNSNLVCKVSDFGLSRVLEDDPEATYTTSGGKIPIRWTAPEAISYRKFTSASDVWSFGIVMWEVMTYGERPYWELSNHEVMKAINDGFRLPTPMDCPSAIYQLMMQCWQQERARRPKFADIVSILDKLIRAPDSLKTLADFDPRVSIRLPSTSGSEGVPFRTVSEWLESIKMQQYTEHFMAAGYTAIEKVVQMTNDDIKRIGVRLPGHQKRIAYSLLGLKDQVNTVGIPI

For the molecule `CN(C)C/C=C/C(=O)Nc1ccc(C(=O)N2CCCC(Nc3ncc(Cl)c(-c4c[nH]c5ccccc45)n3)C2)cc1` (stereo not drawn), the % of control in [1] turned out to be 81%; in [2] it was 98%.
Molecule `CNC(=O)Nc1ccc(-c2nc(N3CC4CCC(C3)O4)c3cnn(C4CCC5(CC4)OCCO5)c3n2)cc1` gave a % of inhibition in test [3] of 4%. In test [4], the % of control was found to be 71%.
On to `Cc1cc([C@@H](C)Nc2ccccc2C(=O)O)c2nc(N3CCOCC3)cc(=O)n2c1` [AZD-6482], for which the % of control in [5] amounted to 98%; in test [6] it was 90%.
The molecule `O=C(NOC[C@H](O)CO)c1ccc(F)c(F)c1Nc1ccc(I)cc1F` had a % of control in test [7] of 100%.
Molecule `COc1cc(N(C)c2ccnc3ccc(C(F)(F)F)cc23)cc(OC)c1OC` yielded a % binding in test [8] of 88%.
The molecule `CN(C)CCOc1ccc(-c2nc(-c3ccncc3)c(-c3ccc4c(c3)CC/C4=N\O)[nH]2)cc1` registered a % of control in test [9] of 92%.
In the case of `CC[C@@H]1[C@H](F)C(=O)N[C@@H]1COc1nccc2cc(C(N)=O)c(OC)cc12` [ZIMLOVISERTIB], the % of inhibition in [10] is 62.9%.
With `Cc1cnc(Nc2ccc(F)cc2Cl)nc1-c1c[nH]c(C(=O)N[C@H](CO)c2cccc(Cl)c2)c1`, in test [11], the % of inhibition stood at 3%.
In test [12], `COc1cc(Nc2nc(C)cc(-c3cnn4nc(OC)ccc34)n2)cc(C(F)(F)F)c1` showed a % of control of 89%.
On to `C=CC(=O)Nc1cccc(C(=O)Nc2ccc(Nc3cc(-c4[nH]c(SC)nc4C)ccn3)cc2)c1`, for which the % of control in test [13] (at 1 µM) is 108%; in test [13] (at 5 µM) it was 90%.
As to `CCC(=O)N1CCN(c2ccc(-n3c(=O)ccc4cnc5ccc(-c6cnc7ccccc7c6)cc5c43)cc2C(F)(F)F)CC1`, the results for the % of control in test [14] and in test [15] were 94% and 100%, respectively.
On to `C=CC(=O)Nc1cc(-n2c(=O)ccc3cnc4ccc(-c5ccc(NS(C)(=O)=O)cc5)cc4c32)ccc1C`, for which the % of control in [16] (at 1 µM) was 70%; in test [16] (at 10 µM) it was 100%.

For the origin of these results see ChEMBL document CHEMBL5465560, “Selectivity Literature for EUbOPEN Chemogenomic Library” (2024).
